pIC50: −log10 of the molar value.

Data set [1] concerns the target T1, Human CYP17 (Homo sapiens, UniProt P05093).
T1 sequence (P05093 1-508): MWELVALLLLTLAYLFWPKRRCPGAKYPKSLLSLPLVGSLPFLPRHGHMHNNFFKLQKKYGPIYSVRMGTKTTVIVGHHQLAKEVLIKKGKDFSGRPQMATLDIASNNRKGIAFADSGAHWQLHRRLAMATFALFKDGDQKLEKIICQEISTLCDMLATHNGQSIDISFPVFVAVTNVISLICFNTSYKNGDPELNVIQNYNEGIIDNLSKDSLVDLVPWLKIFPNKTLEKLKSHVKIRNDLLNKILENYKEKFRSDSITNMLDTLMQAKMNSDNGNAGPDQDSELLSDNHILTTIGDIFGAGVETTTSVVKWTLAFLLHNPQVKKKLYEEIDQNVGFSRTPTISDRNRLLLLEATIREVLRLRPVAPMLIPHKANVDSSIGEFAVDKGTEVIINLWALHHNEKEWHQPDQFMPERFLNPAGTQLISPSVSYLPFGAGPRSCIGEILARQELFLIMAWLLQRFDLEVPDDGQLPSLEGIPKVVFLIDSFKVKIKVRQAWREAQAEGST
In words: CYP17 lyase assay. In kind it is biochemical. The arrangement: made in house; host or cells: HEK293 cells (microsomes). The settings on record: CYP17-HEK293 microsomes, 20 minutes at room temperature; read-out: CYP17 lyase IC50. On the procedure: Human CYP17 was expressed in HEK293 cells and microsome were prepared, which was subsequently used as a source of enzyme for lyase assays. The reaction includes 200 nM [3H]-hydroxy pregnenolone (ARC), 200 nM 17-hydroxy pregnenolone (Sigma), 2 mM NADPH (Calbiochem), and CYP 17-HEK293 microsomes, which were incubated for 20 minutes at room temperature in the presence of DMSO or a test compound. Compounds were dissolved in DMSO and serially diluted. The reaction was stopped by the addition of 0.2N HCl and the product was captured using an anti-mouse YSi SPA Bead (GE) conjugated anti-DHEA monoclonal antibody (Abcam). The signal intensity determined by Packard Top Count was used to calculate the percent inhibition and IC50 values.

Data set [2] has as its system PSA protein secretion, LNcaP cells. Kind of data set: Inhibition of cellular PSA protein secretion. It counts as cell-based. The settings on record: Homo sapiens, 1 nM DHT, 48 hours, ELISA, read-out: Inhibition of PSA proteins, IC50. The protocol: Experimental steps: 1. The original culture medium was replaced with culture medium containing 10% Charcoal Stripped FBS, and cells were allowed to starve in culture flasks for 24 hours; 2. Cells were digested and counted, and LNcaP cells were seeded into 96-well plates at 10,000 cells/well and incubated overnight; 3. The DHT and compound were added to the existing medium at a set concentration, the final concentration of DHT was 1 nM, the initial concentration of the compound was 50000 nM, 5-fold dilution was carried out, 8 concentration gradients were obtained, and incubation was carried out for 48 hours; 4. Cell culture supernatants were collected and PSA protein levels were measured according to the ELISA kit instructions. IC50 was calculated using GraphPad Prism based on the inhibition rate at each concentration, and the results were shown in Table 2 below.

Data set [3] concerns the target T1, Human CYP17. Kind of data set: CYP17 hydroxylase assay. It counts as biochemical. The arrangement: made in house; host or cells: E. coli (membrane preparation). The following applies: hCYP17 E. coli membrane, 25 μM pregnenolone, 37° C. 120 minutes; read-out: CYP17 hydroxylase IC50. The protocol:
E. coli was transformed to express active human CYP17, and a membrane prepared from the transformed E. coli was used as a source of the enzyme. […] The reaction mixture was incubated at 37° C. for 120 minutes and 200 μL of 0.02 N HCl in acetonitrile was added to stop the reaction. The sample was then spun at […] and 200 μL of the supernatant was transferred to a clean tube for determination. The reaction product 17-alpha pregnenolone was measured by LC/MS.

The nature of data set [4]: Metabolic stability evaluation in human liver microsomes. It counts as in vitro ADME. The following applies: human liver microsome. On the procedure:
Experiments in microsomes: Human liver microsomes: 0.5 mg/mL, Xenotech; Coenzyme (NADPH/NADH): 1 mM, Sigma Life Science; Magnesium chloride: 5 mM, 100 mM phosphate buffer (pH 7.4).
Preparation of stock solution: Powder of the example compound was accurately weighed and dissolved in DMSO to 5 mM.
Preparation of phosphate buffer (100 mM, pH7.4): A pre-formulated 0.5M potassium dihydrogen phosphate (150 mL) was mixed with 0.5M dibasic potassium phosphate (700 mL). The pH of the mixture was adjusted to 7.4 with 0.5M dibasic potassium phosphate solution. The mixture was diluted 5-fold with ultrapure water before use, and magnesium chloride was added to obtain a phosphate buffer (100 mM) containing 100 mM potassium phosphate, 3.3 mM magnesium chloride, pH 7.4.
A NADPH regeneration system solution (containing 6.5 mM NADP, 16.5 mM G-6-P, 3 U/mL G-6-P D, 3.3 mM magnesium chloride) was prepared and placed on wet ice prior to use.
Preparation of stop solution: acetonitrile solution containing 50 ng/mL propranolol hydrochloride and 200 ng/mL tolbutamide (internal standard). 25057.5 μL of phosphate buffer (pH 7.4) was taken into a 50 mL centrifuge tube, to which 812.5 μL human liver microsomes were added, and mixed to obtain a liver microsome dilution solution with a protein concentration of 0.625 mg/mL. 25057.5 μL of phosphate buffer (pH 7.4) was taken into a 50 mL centrifuge tube, to which 812.5 μL SD rat liver microsomes were added, and mixed to obtain a liver microsome dilution solution with a protein concentration of 0.625 mg/mL.
Incubation of the samples: The stock solution of the respective compound was respectively diluted to 0.25 mM with an aqueous solution containing 70% acetonitrile, and used as a working solution, ready for use. 398 μL of the dilution solution of human liver microsomes or rat liver microsome were added to a 96-well incubation plate (N=2), respectively, and 2 μL of 0.25 mM working solution was added and mixed.
Metabolic stability assay: 300 μL of pre-chilled stop solution was added to each well of a 96-well deep well plate and placed on ice as a stop plate. The 96 well incubation plate and NADPH regeneration system were placed in a 37° C. water bath box, shaken at 100 rpm and pre-incubated for 5 min. 80 μL of incubation solution was taken out from each well of the incubation plate and added to the stop plate, mixed, and replenished with 20 μL of NADPH regeneration system solution as a 0-min sample. 80 μL of NADPH regeneration system solution was added to each well of the incubation plate to start the reaction and start counting. […] Separately, 100 μL of the reaction solution was taken at 10, 30, and 90 min reaction, respectively, added to a stop plate, and vortexed for 3 minutes to terminate the reaction. The stop plate was centrifuged at 5000×g at 4° C. for 4 min. 100 μL of the supernatant was added to a 96-well plate to which 100 μL of distilled water was previously added, mixed, and analyzed by LC-MS/MS.
Data analysis: The peak areas of the corresponding compound and internal standard were detected by LC-MS/MS system, and the ratio of the peak area of the compound to the internal standard was calculated.
A general note: Microsomes from liver hold many membrane-bound enzymes, among them those of drug oxidation.

The mark [5] stands for this setting: human liver microsomes, pH 7.4, 1 μM compound, 0.5 mg/mL protein.

A word on the pIC50: it is the negative decadic logarithm of the IC50, by convention in mol/L. As to `[2H]c1cncc(C2=CCC3C4CCC5=CC(=O)CC[C@]5(C)C4CC[C@]23C)c1` (stereo partly drawn) [Example 11, (3β)-17-(3-pyridyl-5-d)androst-4,16-dien-3-one], the negative-log IC50 (pIC50) was over 8.00 on Human CYP17 [1], over 8.00 in data set [2] and over 7.70 at Human CYP17 [3].
The half-life is the time needed for the level to fall by half in the phase considered. A word on the microsomal CLint: it is the rate of metabolic loss divided by the concentration. As to `[2H]c1ccc(C2=CCC3C4CCC5=CC(=O)CC[C@]5(C)C4CC[C@]23C)cn1` (stereo partly drawn) [Example 12, (3β)-17-(3-pyridyl-6-d)androst-4,16-dien-3-one], the results for the pIC50 (on Human CYP17 [1]; in data set [2]; on Human CYP17 [3]) were over 8.00, over 8.00 and over 7.70, respectively. The “clearance compared to the non-deuterated compound” value in data set [4] (in words) is on record as “reduced”. Besides, the “half-life compared to the non-deuterated compound” value in data set [4] (in words) was “prolonged”. For the same compound, the half-life at 1 μM in data set [4] (setting [5]) is 3.4 min. Besides, in data set [4] (setting [5]), the intrinsic metabolic clearance (microsomal CLint) at 1 μM came to 408 µL/min/mg.
Regarding `[2H]C1=C(c2cccnc2)[C@@]2(C)CCC3C(CCC4=CC(=O)CC[C@@]43C)C2C1` (stereo partly drawn) [Example 13, (3β)-17-(3-pyridyl)-16-d-androst-4,16-dien-3-one], the pIC50 was over 8.00 at Human CYP17 [1], over 8.00 in data set [2] and over 7.70 on Human CYP17 [3].

For the origin of these results see US10519193B2, “Steroidal compound, composition containing the same and use thereof” (Shenzhen TargetRx, Inc., priority 2016, dated 2019).
